From PubChem BioAssay (NCI)
Where “and” joins values, the source holds several entries; their conditions need not be identical. Identical values can stand only once.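 The compound was tested at five concentrations on cells cultured in 96-well plates, with a 48-hour exposure period. GI50 is the concentration that inhibits growth by half. At the TGI there is no net growth.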

Assays:
Experiment in all cases: NCI-60 cell line screen, 48 h
CCRF-CEM leukemia = test system: CCRF-CEM leukemia
HL-60(TB) leukemia = test system: HL-60(TB) leukemia
NCI-H460 lung = test system: NCI-H460 lung
OVCAR-3 ovarian = test system: OVCAR-3 ovarian
SF-539 CNS = test system: SF-539 CNS
SK-MEL-2 melanoma = test system: SK-MEL-2 melanoma
SK-MEL-5 melanoma = test system: SK-MEL-5 melanoma
SN12C renal = test system: SN12C renal
U251 CNS = test system: U251 CNS
UO-31 renal = test system: UO-31 renal

SMILES	TGI (CCRF-CEM leukemia)	TGI (HL-60(TB) leukemia)	TGI (NCI-H460 lung)	TGI (OVCAR-3 ovarian)	TGI (SF-539 CNS)	TGI (SK-MEL-2 melanoma)	TGI (SK-MEL-5 melanoma)	TGI (SN12C renal)	TGI (U251 CNS)	TGI (UO-31 renal)	GI50 (CCRF-CEM leukemia)	GI50 (NCI-H460 lung)	GI50 (OVCAR-3 ovarian)	GI50 (SF-539 CNS)	GI50 (SK-MEL-2 melanoma)	GI50 (SK-MEL-5 melanoma) [µM]	GI50 (SN12C renal)	GI50 (U251 CNS)	GI50 (UO-31 renal)	GI50 (HL-60(TB) leukemia) [µM]
C/C(=C\c1ccccc1)C(=O)c1c(C)cc(C)cc1C	> 100 µM	> 100 µM	> 100 µM	> 100 µM	> 100 µM	> 100 µM	> 100 µM	> 100 µM	> 100 µM	> 100 µM										
Cc1nc(Nc2ccc(Cl)cc2)sc1C(=O)Nc1cccc2c(=O)[nH][nH]c(=O)c12	79.5 µM	45.2 µM	88.6 µM	40.4 µM	> 100 µM	> 100 µM	45.2 µM	> 100 µM	> 100 µM	> 100 µM										
Cc1c(-c2ccc(-c3ccccc3F)cc2)nc2ccc(F)cc2c1C(=O)O	190 µM and 684 µM	36.4 µM and 148 µM and 302 µM	80.9 µM and 174 µM	27.5 µM and 91.6 µM and 139 µM	25.6 µM and 110 µM and 29.9 µM	148 µM and 909 µM	58.6 µM and 186 µM	80.6 µM and 280 µM	104 µM and 259 µM	78.9 µM and 105 µM	0.0742 µM and 0.557 µM	0.349 µM and 0.5 µM	10.1 µM and 23 µM	0.0959 µM and 0.5 µM	135 µM	2.37	2.63 µM and 5.25 µM	0.0723 µM and 0.5 µM	1.85 µM and 2.65 µM	
CCOC(=O)C(Cc1cc(OC)c(CC(C(=O)OCC)C(=O)OCC)cc1OC)C(=O)OCC	> 100 µM	> 100 µM	> 100 µM	> 100 µM	> 100 µM	> 100 µM	> 100 µM	> 100 µM	> 100 µM	> 100 µM										
CCOC(=O)/C=C/c1ccc([N+](=O)[O-])o1	10.2 µM	6.78 µM	38.9 µM	9.21 µM	7.4 µM	36.8 µM	15.2 µM	10.8 µM	50.4 µM	3.42 µM	0.518 µM	18.1 µM	3.13 µM	2.7 µM	11.3 µM	3.81	3.03 µM	14.7 µM	1.69 µM	2.38
O=C(C#Cc1ccccc1)NC/C=C/c1ccccc1	> 100 µM	58.1 µM	> 100 µM	> 100 µM	> 100 µM	97.4 µM	> 100 µM	> 100 µM	> 100 µM	> 100 µM										
CCOC(=N)CC(=O)Nc1ccccc1CC	> 100 µM	> 100 µM	> 100 µM	> 100 µM	> 100 µM	> 100 µM	> 100 µM	> 100 µM	> 100 µM	> 100 µM										
CC(C)(O)c1cc(Nc2cc(Oc3cn(C4CC4)nc3C3CCOCC3)ccn2)ccn1	> 100 µM	> 100 µM	> 100 µM	> 100 µM	> 100 µM	> 100 µM	> 100 µM	> 100 µM	> 100 µM	> 100 µM	> 100 µM	> 100 µM	98.1 µM	> 100 µM	> 100 µM	38.7	> 100 µM	> 100 µM	54 µM	27.6
CC(C)C(Br)C(=O)NCC(=O)O (configuration not stated)	> 100 µM	> 100 µM	> 100 µM	> 100 µM	> 100 µM	> 100 µM	> 100 µM	> 100 µM	> 100 µM	> 100 µM										
Nc1ccccc1SC(/C=C/NNC1=NC(c2ccccc2)C(c2ccccc2)=NN1)c1ccccc1 (configuration not stated)	7.94 µM	13.1 µM	51.9 µM	26.1 µM	25.9 µM	33 µM	26.8 µM	31.5 µM	28.9 µM	18.4 µM										
CCCCC[C@H]1C/C=C2/C(=O)C=C[C@@H]2C/C=C\CCCC(=O)O1	5 µM	0.343 µM	5.38 µM	0.664 µM	0.67 µM	0.296 µM	0.168 µM	2.44 µM	0.305 µM	0.171 µM	0.106 µM	0.156 µM	0.182 µM	0.16 µM	0.114 µM	0.0844	0.18 µM	0.116 µM	0.0902 µM	0.12
CN1C2C=CC(=O)C1C(C#N)C2 (configuration not stated)	82.7 µM and > 100 µM	43.7 µM and > 100 µM	> 100 µM	> 100 µM	84 µM and > 100 µM	32.1 µM and > 100 µM	> 100 µM	> 100 µM	> 100 µM	39 µM and > 100 µM					12.5 µM and 88.3 µM			23.6 µM	19.1 µM and 39.8 µM	
COC(=O)c1c(C(=O)O)c(-c2ccccc2)c(-c2ccccc2)c(-c2ccccc2)c1-c1ccccc1	> 100 µM	> 100 µM	> 100 µM	> 100 µM	> 100 µM	> 100 µM	> 100 µM	> 100 µM	> 100 µM	43.5 µM	> 100 µM	> 100 µM	> 100 µM	> 100 µM	> 100 µM	> 100	> 100 µM	> 100 µM	14.7 µM	> 100
Cn1cc(-c2csc(-c3ccc(Cl)cc3)n2)c2cccnc21	51.9 µM	47.5 µM	34.4 µM	35.6 µM	29.5 µM	42.5 µM	27.6 µM	32.5 µM	29.4 µM	38.6 µM	18.4 µM	16 µM	17.1 µM	14.8 µM	17.4 µM	13.9	14.8 µM	14.6 µM	13.6 µM	10.4
S=C(Nc1ccc(-c2nc3ccccc3s2)cc1)Nc1ccc(-c2nc3ccccc3s2)cc1	70.6 µM	> 100 µM	63.9 µM	> 100 µM	42.4 µM	45 µM	26.6 µM	44.5 µM	41.6 µM	34 µM	18.4 µM	21 µM	24.5 µM	16.6 µM	22.9 µM	13.5	16.7 µM	17.2 µM	12.4 µM	35.7
